Measured values as given in patent publication US20100022640A1, “ESTERS OF 2-[…] AND ANTIFUNGAL COMPOSITIONS CONTAINING THEM” (priority 2006, published 2010).
Values after ≈ are worked out from the molar mass of the structure shown.

Legend:
Type in all cases: cell-based
Aspergillis niger = experiment: Fungistatic endpoint in inoculated culture medium, Aspergillis niger; conditions: lowest concentration preventing visible growth, Bushnell-Haas medium with dextrose 10 g/L and yeast extract 0.1 g/L, pH 7.0; for MIC: read-out: Fungistatic Endpoint (ppm Range) Aspergillis niger
Procedure: (§1) The microorganisms involved in these tests were Aspergillis niger, Candida albicans, Trichophyton metagrophytes, and Pichia pastoris. The various esters tested are listed in the following table together with their fungistatic endpoints.
(§2) Fungistatic endpoints were determined by combining the compounds at several dosage levels in a culture medium which had been freshly inoculated with spores of the test organisms. Five mL aliquots were placed in sterile culture tubes. The test compounds dissolved in the appropriate solvent were added to obtain the desired concentration of the compound in the culture medium. Following incubation at suitable conditions, the presence of growth was determined visually at each concentration of the biocide. The lowest concentration of the compound preventing growth was taken as the fungistatic endpoint. Controls containing the solvent alone at the highest dosage were made to insure that no microbial inhibition was produced by the solvent.
(§3) The culture media used in these tests was the Bushnell-Haas medium from Difco. Dextrose at 10 g/L and yeast extract at 0.1 g/L were added to obtain growth of the test organisms. The dilute solution of the Bushnell Haas media which was used in these tests contains: 0.20 g/L magnesium sulfate; 0.02 g/L calcium chloride; 1.00 g/L monopotassium phosphate; 1.00 g/L dipotassium phosphate; 1.00 g/L ammonium nitrate, and 0.05 g/L ferric chloride. The final pH of the media was 7.0±0.2 at 25° C.

[1] = tested on: Trichophyton metagrophytes; experiment: Fungistatic endpoint in inoculated culture medium, T. metagrophytes; conditions: lowest concentration preventing visible growth, Bushnell-Haas medium with dextrose 10 g/L and yeast extract 0.1 g/L, pH 7.0; for MIC: Trichophyton, read-out: Fungistatic Endpoint (ppm Range) T. metagrophytes
Procedure: as §1, §2, §3

Candida albicans = experiment: Fungistatic endpoint in inoculated culture medium, Candida albicans; conditions: lowest concentration preventing visible growth, Bushnell-Haas medium with dextrose 10 g/L and yeast extract 0.1 g/L, pH 7.0; for MIC: Candida albicans, read-out: Fungistatic Endpoint (ppm Range) Candida albicans
Procedure: as §1, §2, §3

Pichia pastoris = experiment: Fungistatic endpoint in inoculated culture medium, Pichia pastoris; conditions: lowest concentration preventing visible growth, Bushnell-Haas medium with dextrose 10 g/L and yeast extract 0.1 g/L, pH 7.0; for MIC: Komagataella pastoris, read-out: Fungistatic Endpoint (ppm Range) Pichia. pastoris
Procedure: as §1, §2, §3

| SMILES | MIC (Aspergillis niger) | MIC [1] | MIC (Candida albicans) | MIC (Pichia pastoris) | also measured |
| --- | --- | --- | --- | --- | --- |
| CC(=O)OC(C)C(C#N)c1ccc(C)cc1 (stereo not drawn) [Example 22, 3-acetoxy-2-(4-methylphenyl)butanenitrile] | 128 to 256 µg/mL (≈ 589 to 1180 µM) | – | – | – | – |
| CC(=O)OCC(C#N)c1cccc(Oc2ccccc2)c1 (stereo not drawn) [Example 33] | – | – | – | – | Fungistatic Endpoint (ppm Range) Aspergillis niger (Aspergillis niger): 128-256 ppm |
| CC(=O)OCC(C#N)c1ccccc1Cl (stereo not drawn) [Example 14, 3-acetoxy-2-(2-chlorophenyl)propanenitrile] | – | 32 µg/mL (≈ 143 µM) | 16 µg/mL (≈ 71.5 µM) | 16 µg/mL (≈ 71.5 µM) | – |
| CC(=O)OCC(C#N)c1ccc(Cl)cc1C (stereo not drawn) [Example 12, 3-acetoxy-2-(4-chloro-2-methylphenyl)propanenitrile] | 64 to 128 µg/mL (≈ 269 to 539 µM) | > 64 µg/mL | > 64 µg/mL | > 64 µg/mL | – |
| CC(=O)OC(C)C(C#N)c1ccc(Cl)cc1 (stereo not drawn) [Example 19, 3-acetoxy-2-(4-chlorophenyl)butanenitrile] | – | 32 to 64 µg/mL (≈ 135 to 269 µM) | 16 to 32 µg/mL (≈ 67.3 to 135 µM) | 16 µg/mL (≈ 67.3 µM) | – |
| COc1ccc(C(C#N)COC(C)=O)cc1 (stereo not drawn) [Example 24, 3-acetoxy-2-(4-methoxyphenyl)propanenitrile] | 128 µg/mL (≈ 584 µM) | – | – | – | – |
| COCC(OC(C)=O)C(C#N)c1ccc(Cl)cc1 (stereo not drawn) [Example 20, 3-acetoxy-2-(4-chlorophenyl)-4-methoxybutanenitrile] | 64 to 128 µg/mL (≈ 239 to 478 µM) | – | – | – | – |
| CC(=O)OCC(C#N)c1ccc(Cl)cc1 (stereo not drawn) [Example 16, 3-acetoxy-2-(4chlorophenyl)propanenitrile] | – | < 16 µg/mL | < 16 µg/mL | < 16 µg/mL | – |
| COc1ccc(C(C#N)C(C)OC(C)=O)cc1 (stereo not drawn) [Example 25, 3-acetoxy-2-(4-methoxyphenyl)butanentrile] | – | – | – | – | Fungistatic Endpoint (ppm Range) Aspergillis niger (Aspergillis niger): 128-256 ppm |
| CC(=O)OCC(C#N)c1ccccc1C(F)(F)F (stereo not drawn) [Example 10, 3-acetoxy-2-(2-(trifluoromethyl)phenyl)propanenitrile] | 128 to 256 µg/mL (≈ 498 to 995 µM) | > 64 µg/mL | > 64 µg/mL | > 64 µg/mL | – |
| COCC(OC(C)=O)C(C#N)c1ccc(C)cc1 (stereo not drawn) [Example 23, 3-acetoxy-2-(4-methylphenyl)-4methoxybutanenitride] | – | – | – | – | Fungistatic Endpoint (ppm Range) Aspergillis niger (Aspergillis niger): 128-256 ppm |
| COCC(OC(C)=O)C(C#N)c1ccc(OC)cc1 (stereo not drawn) [Example 26, 3-acetoxy-2-(4-methoxyphenyl)-4-methoxybutanenitrile] | 128 to 256 µg/mL (≈ 486 to 972 µM) | – | – | – | – |
| CC(=O)OCC(C#N)c1cc(Cl)ccc1Cl (stereo not drawn) [Example 6, 3-acetoxy-2-(2,5-dichlorophenyl)propanenitrile] | – | < 16 µg/mL | < 16 µg/mL | – | – |
| CC(=O)OCC(C#N)c1ccccc1 (stereo not drawn) [Example 32, 3-acetoxy-2-phenylpropanenitrile] | – | 16 µg/mL (≈ 84.6 µM) | > 64 µg/mL | 16 to 32 µg/mL (≈ 84.6 to 169 µM) | – |
| CC(=O)OCC(C#N)c1ccc(Cl)cc1Cl (stereo not drawn) [Example 8, 3-acetoxy-2-(2,4-dichlorophenyl)propanenitrile] | – | 16 to 32 µg/mL (≈ 62 to 124 µM) | 16 µg/mL (≈ 62 µM) | < 16 µg/mL | – |
| N#CC(COC(=O)Cc1ccccc1)c1cc(OC(F)F)ccc1Cl (stereo not drawn) [Example 31] | – | – | – | – | Fungistatic Endpoint (ppm Range) T. metagrophytes [1]: <16 ppm; Fungistatic Endpoint (ppm Range) Candida albicans (Candida albicans): >64 ppm; Fungistatic Endpoint (ppm Range) Pichia. pastoris (Pichia pastoris): 64 ppm |
| N#CC(COC=O)c1cc(OC(F)F)ccc1Cl (stereo not drawn) [Example 29, 2-(2-chloro-5-(difluoromethoxy)phenyl)-3-(formyloxy)propanenitrile] | < 16 µg/mL | < 16 µg/mL | < 16 µg/mL | – | – |
| CC(=O)OCC(C#N)c1cc(OC(F)F)ccc1Cl (stereo not drawn) [Example 5, 3-acetoxy-2-(2-chloro-5-(difluoromethoxy)phenyl)propanenitrile] | – | < 16 µg/mL | < 16 µg/mL | – | – |
| CCOC(=O)C(OC(C)=O)C(C#N)c1ccc(Cl)cc1 (stereo not drawn) [Example 28, ethyl 2-acetoxy-3-(4-chlorophenyl)-3-cyanopropanoate] | 128 µg/mL (≈ 433 µM) | – | – | – | – |
| CC(=O)OCC(C#N)c1ccc(C)cc1 (stereo not drawn) [Example 21, 3-acetoxy-2-(4-methylphenyl)propanenitrile] | 64 µg/mL (≈ 315 µM) | – | – | – | – |
| CC(=O)OCC(C#N)c1cc(Cl)ccc1OC(F)F (stereo not drawn) [Example 7, 3-acetoxy-2-(5-chloro-2-(difluoromethoxy)phenyl)propanenitrile] | – | 32 µg/mL (≈ 110 µM) | 32 µg/mL (≈ 110 µM) | 32 µg/mL (≈ 110 µM) | – |
| N#CC(COC=O)c1cc(Cl)ccc1Cl (stereo not drawn) [Example 30, 2-(2,5-dichlorophenyl)-3-(formyloxy)propanenitrile] | < 16 µg/mL | < 16 µg/mL | < 16 µg/mL | – | – |
